Drawing on ChEMBL document CHEMBL5058642, “Data for DCP probe TP-051” (2022), this text covers inhibition for two molecules.

Data set [1] addresses C5a anaphylatoxin chemotactic receptor 1 (Homo sapiens) (UniProt P21730). Briefly: Anaphylatoxin C5a Eurofins-Panlabs radioligand binding assay. The following applies: Compound concentration 10.0 uM.
Data set [2] is filed under the species Homo sapiens. Briefly: Inhibition of Nicotinic Acetylcholine at compound concentration of 10.0 uM in the Eurofins-Panlabs radioligand binding assay (Eurofins_assay_258590). The data set is classed as protein-complex assay. Particulars: Compound concentration 10.0 uM; call rule not given here.
Data set [3] has as its target Neuromedin-K receptor (Homo sapiens) (UniProt P29371). Briefly: (§1) Tachykinin NK3 Eurofins-Panlabs radioligand binding assay. Further details: ligand concentration 0.8 nM. Particulars: Compound concentration 10.0 uM.
Data set [4] deals with Delta-type opioid receptor (Homo sapiens) (UniProt P41143). Particulars: Compound concentration 10.0 uM.
Data set [5] concerns the target Sodium-dependent serotonin transporter (Homo sapiens) (UniProt P31645). Particulars: Compound concentration 10.0 uM.
Data set [6] deals with Cannabinoid receptor 1 (Homo sapiens) (UniProt P21554). Briefly: Cannabinoid CB1 Eurofins-Panlabs radioligand binding assay. Particulars: Compound concentration 10.0 uM.
Data set [7] is filed under the species Rattus norvegicus. Briefly: Serotonin (5-Hydroxytryptamine) 5-HT2, Non-Selective Eurofins-Panlabs radioligand binding assay. The class given is protein assay. Particulars: Compound concentration 10.0 uM.
The species named for data set [8] is Rattus norvegicus. The following applies: Compound concentration 10.0 uM.
Data set [9] addresses Sodium-dependent noradrenaline transporter (Homo sapiens) (UniProt P23975). Particulars: Compound concentration 10.0 uM.
Data set [10] has as its target T1, Muscarinic acetylcholine receptor M2 (Homo sapiens) (UniProt P08172).
T1 sequence (whole entry): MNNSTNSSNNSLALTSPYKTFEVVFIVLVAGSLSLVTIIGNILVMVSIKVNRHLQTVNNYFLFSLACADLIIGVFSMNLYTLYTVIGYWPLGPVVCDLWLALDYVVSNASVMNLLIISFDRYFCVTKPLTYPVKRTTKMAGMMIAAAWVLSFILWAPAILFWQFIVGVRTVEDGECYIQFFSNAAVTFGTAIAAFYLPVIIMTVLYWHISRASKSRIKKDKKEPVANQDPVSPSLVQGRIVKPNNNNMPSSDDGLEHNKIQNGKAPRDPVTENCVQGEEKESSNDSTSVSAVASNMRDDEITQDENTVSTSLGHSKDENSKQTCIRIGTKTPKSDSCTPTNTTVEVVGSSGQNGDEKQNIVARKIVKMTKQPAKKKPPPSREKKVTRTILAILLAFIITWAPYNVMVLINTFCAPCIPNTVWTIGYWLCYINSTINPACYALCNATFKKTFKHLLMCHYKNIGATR
Particulars: Compound concentration 10.0 uM.

Data set [11] deals with Alpha-1B adrenergic receptor (Homo sapiens) (UniProt P35368). Particulars: Compound concentration 10.0 uM.
Data set [12] concerns the target Receptor tyrosine-protein kinase erbB-2 (Homo sapiens) (UniProt P04626). Briefly: Protein Tyrosine Kinase, ERBB2 (HER2) Eurofins-Panlabs enzyme assay. The following applies: Compound concentration 10.0 uM.
Data set [13] is filed under the species Homo sapiens. Briefly: Protein Serine/Threonine Kinase, MAPK14 (p38α) Eurofins-Panlabs enzyme assay. On the set-up: substrate with concentration 10 µg/mL Myelin Basic Protein (MBP), incubation time 60 min, incubation temperature 25 °C. Particulars: Compound concentration 10.0 uM.
The target of data set [14] is Matrix metalloproteinase-14 (Homo sapiens) (UniProt P50281). Briefly: Peptidase, Matrix Metalloproteinase-14 (MMP-14) Eurofins-Panlabs enzyme assay. On the set-up: substrate with concentration. Particulars: Compound concentration 10.0 uM.
The species named for data set [15] is Homo sapiens. Briefly: Inhibition of Phosphodiesterase PDE4 at compound concentration of 10.0 uM in the Eurofins-Panlabs enzyme assay (Eurofins_assay_154000). Particulars: Compound concentration 10.0 uM. The data set is classed as protein assay. On the set-up: substrate with concentration 1.01 uM [3 H]cAMP + cAMP, incubation time 20 min, incubation temperature 25 C.

In data set [16] the target is Cyclin-dependent kinase 1/cyclin B (Homo sapiens) (UniProt P06493+P14635+Q8WWL7+O95067). Briefly: Protein Serine/Threonine Kinase, cdk1/Cyclin B Eurofins-Panlabs enzyme assay. The class given is protein-complex assay. The following applies: Compound concentration 10.0 uM.
In data set [17] the target is Polyunsaturated fatty acid 5-lipoxygenase (Homo sapiens) (UniProt P09917). Briefly: Lipoxygenase 5-LO Eurofins-Panlabs enzyme assay. Particulars: Compound concentration 10.0 uM.
Data set [18] concerns the target Disintegrin and metalloproteinase domain-containing protein 17 (Homo sapiens) (UniProt P78536). Briefly: Peptidase, Tumor Necrosis Factor-alpha Converting Enzyme (TACE) Eurofins-Panlabs enzyme assay. Further details: substrate with concentration. Particulars: Compound concentration 10.0 uM.
The target in data set [19] is Phospholipase A2 (Sus scrofa) (UniProt A0A8D1VEY7). Briefly: Phospholipase PLA2-I Eurofins-Panlabs enzyme assay. The following applies: Compound concentration 10.0 uM. Further details: substrate with concentration.
For data set [20], the species on record is Homo sapiens. The following applies: Compound concentration 10.0 uM.
For data set [21], the target named is Alpha-1D adrenergic receptor (Homo sapiens) (UniProt P25100). Particulars: Compound concentration 10.0 uM.
Data set [22] is filed under the species Bos taurus. Briefly: Phosphodiesterase PDE6 Eurofins-Panlabs enzyme assay. Further details: substrate with concentration [3H] cGMP + cGMP, incubation time 20 min, incubation temperature 25 °C. Particulars: Compound concentration 10.0 uM.
Data set [23] concerns the target Renin (Homo sapiens) (UniProt P00797). Briefly: Peptidase, Renin Eurofins-Panlabs enzyme assay. Particulars: Compound concentration 10.0 uM.
The target in data set [24] is Steroid 5-alpha-reductase (Rattus norvegicus) (UniProt P24008+P31214). Briefly: Steroid 5α-Reductase Eurofins-Panlabs enzyme assay. The class given is protein assay. On the set-up: substrate with concentration. Particulars: Compound concentration 10.0 uM.
For data set [25], the target named is Coagulation factor VII (Homo sapiens) (UniProt P08709). Briefly: Peptidase, Factor VIIa Eurofins-Panlabs enzyme assay. Particulars: Compound concentration 10.0 uM. Further details: substrate with concentration.
The species named for data set [26] is Canis lupus familiaris. Briefly: ATPase, Na+/K+ Eurofins-Panlabs enzyme assay. The following applies: Compound concentration 10.0 uM.
Data set [27] deals with Vasopressin V2 receptor (Homo sapiens) (UniProt P30518). Briefly: Inhibition of Vasopressin V2 at 10 µM in the Eurofins-Panlabs radioligand binding assay (Eurofins_assay_287610). Further details: ligand concentration 4 nM. Particulars: Compound concentration 10.0 uM.
Data set [28] has as its target Cannabinoid receptor 1 (Homo sapiens) (UniProt P21554). Briefly: Inhibition of Cannabinoid CB1 at compound concentration of 10.0 uM in the Eurofins-Panlabs radioligand binding assay (Eurofins_assay_217050). Further details: ligand concentration 2 nM. The following applies: Compound concentration 10.0 uM.
The target in data set [29] is Coagulation factor X (Homo sapiens) (UniProt P00742). Briefly: Peptidase, Factor Xa Eurofins-Panlabs enzyme assay. On the set-up: substrate with concentration. Particulars: Compound concentration 10.0 uM.
Data set [30] addresses Protein phosphatase 3 catalytic subunit alpha (Homo sapiens) (UniProt Q08209). Briefly: Protein Serine/Threonine Phosphatase, Calcineurin, PP2B Eurofins-Panlabs enzyme assay. Particulars: Compound concentration 10.0 uM.
Data set [31] deals with RAC-alpha serine/threonine-protein kinase (Homo sapiens) (UniProt P31749). Briefly: Protein Serine/Threonine Kinase, PKBα/Akt1 Eurofins-Panlabs enzyme assay. The following applies: Compound concentration 10.0 uM.
In data set [32] the target is Neuromedin-K receptor (Homo sapiens) (UniProt P29371). The description is as §1. Particulars: Compound concentration 10.0 uM.
Data set [33] concerns the target MAO-A (Homo sapiens, UniProt P21397). Briefly: Inhibition of Monoamine Oxidase MAO-A at compound concentration of 10.0 uM in the Eurofins-Panlabs enzyme assay (Eurofins_assay_140010). On the set-up: substrate with concentration 50 uM Kynuramine, incubation time 60 min, incubation temperature 37 C. Particulars: recombinant human MAO-A expressed in insect Hi5 cells, probe Kynuramine, 50 uM, compound concentration 10 uM.

The target of data set [34] is 3-hydroxy-3-methylglutaryl-coenzyme A reductase (Homo sapiens) (UniProt P04035). Briefly: HMG-CoA Reductase Eurofins-Panlabs enzyme assay. Particulars: Rattus norvegicus; Compound concentration 10.0 uM.
For data set [35], the target named is Sodium-dependent serotonin transporter (Homo sapiens) (UniProt P31645). Briefly: Transporter, Serotonin (5- Hydroxytryptamine) (SERT) Eurofins-Panlabs radioligand binding assay. Further details: ligand concentration 0.15 nM, non-specific ligand with concentration 10 µM Imipramine, incubation time 3 h, incubation temperature 4 °C. The following applies: Compound concentration 10.0 uM.

The species named for data set [36] is Rattus norvegicus. Briefly: Protein Serine/Threonine Kinase, PKC, Non-Selective Eurofins-Panlabs enzyme assay. Particulars: Compound concentration 10.0 uM.
Data set [37] has as its target Matrilysin (Homo sapiens) (UniProt P09237). Briefly: Peptidase, Matrix Metalloproteinase-7 (MMP-7) Eurofins-Panlabs enzyme assay. Further details: substrate with concentration. The following applies: Compound concentration 10.0 uM.
For data set [38], the target named is Interstitial collagenase (Homo sapiens) (UniProt P03956). Briefly: Inhibition of Peptidase, Matrix Metalloproteinase-1 (MMP-1) at 10 µM in the Eurofins-Panlabs enzyme assay (Eurofins_assay_114110). The following applies: Compound concentration 10.0 uM.

SMILES strings stand for the structures.

Chain of Cannabinoid receptor 1 (Homo sapiens) (P21554 whole entry): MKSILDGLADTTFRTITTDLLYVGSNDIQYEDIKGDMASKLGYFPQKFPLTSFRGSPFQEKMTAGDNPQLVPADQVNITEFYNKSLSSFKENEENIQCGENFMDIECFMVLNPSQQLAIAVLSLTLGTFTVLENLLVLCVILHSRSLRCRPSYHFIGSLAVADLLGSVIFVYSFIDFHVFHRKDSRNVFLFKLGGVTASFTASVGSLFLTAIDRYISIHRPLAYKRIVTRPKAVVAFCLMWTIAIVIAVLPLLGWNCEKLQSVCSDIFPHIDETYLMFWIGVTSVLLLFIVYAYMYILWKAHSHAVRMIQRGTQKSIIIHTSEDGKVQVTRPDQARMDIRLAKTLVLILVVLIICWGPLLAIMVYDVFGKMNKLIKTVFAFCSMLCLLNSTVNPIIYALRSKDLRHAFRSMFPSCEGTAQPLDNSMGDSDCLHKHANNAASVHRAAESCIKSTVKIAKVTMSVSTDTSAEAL
Chain of Neuromedin-K receptor (Homo sapiens) (P29371 whole entry): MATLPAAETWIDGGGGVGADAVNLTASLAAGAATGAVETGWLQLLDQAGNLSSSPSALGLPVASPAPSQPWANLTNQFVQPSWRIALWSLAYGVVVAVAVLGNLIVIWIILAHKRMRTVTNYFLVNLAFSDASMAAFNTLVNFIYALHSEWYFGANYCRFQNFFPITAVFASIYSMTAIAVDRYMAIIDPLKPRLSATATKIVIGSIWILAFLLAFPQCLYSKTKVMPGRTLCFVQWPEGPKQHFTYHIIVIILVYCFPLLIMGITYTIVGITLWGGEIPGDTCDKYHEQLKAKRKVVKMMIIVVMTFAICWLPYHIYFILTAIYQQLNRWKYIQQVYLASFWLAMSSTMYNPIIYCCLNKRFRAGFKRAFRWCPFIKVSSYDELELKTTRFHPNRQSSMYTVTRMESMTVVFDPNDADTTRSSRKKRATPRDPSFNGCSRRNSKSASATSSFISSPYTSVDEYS
Chain of Sodium-dependent serotonin transporter (Homo sapiens) (P31645 whole entry, looked up): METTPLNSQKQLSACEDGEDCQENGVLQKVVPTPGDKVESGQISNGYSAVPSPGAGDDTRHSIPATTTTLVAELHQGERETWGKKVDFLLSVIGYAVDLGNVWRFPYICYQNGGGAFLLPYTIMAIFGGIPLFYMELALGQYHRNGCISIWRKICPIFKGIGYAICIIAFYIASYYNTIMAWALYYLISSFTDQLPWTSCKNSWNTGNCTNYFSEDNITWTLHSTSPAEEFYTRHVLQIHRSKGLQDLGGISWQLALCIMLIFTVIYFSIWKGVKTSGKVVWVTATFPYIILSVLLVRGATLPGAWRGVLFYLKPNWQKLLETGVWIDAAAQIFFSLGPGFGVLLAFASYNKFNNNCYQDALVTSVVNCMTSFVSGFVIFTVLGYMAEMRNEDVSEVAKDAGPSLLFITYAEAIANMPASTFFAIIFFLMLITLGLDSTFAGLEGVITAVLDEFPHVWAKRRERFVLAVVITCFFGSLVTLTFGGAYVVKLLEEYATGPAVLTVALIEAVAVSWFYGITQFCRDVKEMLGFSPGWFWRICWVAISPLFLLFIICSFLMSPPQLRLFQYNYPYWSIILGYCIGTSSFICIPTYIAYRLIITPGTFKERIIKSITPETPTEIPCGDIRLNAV
Chain of Interstitial collagenase (Homo sapiens) (P03956 whole entry): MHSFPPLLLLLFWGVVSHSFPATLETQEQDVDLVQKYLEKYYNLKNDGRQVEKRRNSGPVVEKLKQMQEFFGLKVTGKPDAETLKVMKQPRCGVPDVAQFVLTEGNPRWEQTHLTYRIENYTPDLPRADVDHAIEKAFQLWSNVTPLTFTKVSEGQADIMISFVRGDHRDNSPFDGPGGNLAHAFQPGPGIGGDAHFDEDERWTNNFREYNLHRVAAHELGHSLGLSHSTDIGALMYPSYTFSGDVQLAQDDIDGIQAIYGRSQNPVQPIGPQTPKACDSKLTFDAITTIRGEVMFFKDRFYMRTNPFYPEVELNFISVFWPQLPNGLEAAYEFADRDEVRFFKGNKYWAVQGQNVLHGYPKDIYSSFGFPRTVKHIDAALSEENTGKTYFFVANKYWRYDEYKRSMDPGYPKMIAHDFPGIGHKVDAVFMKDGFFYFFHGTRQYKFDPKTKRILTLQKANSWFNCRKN
Chain of Receptor tyrosine-protein kinase erbB-2 (Homo sapiens) (P04626 whole entry): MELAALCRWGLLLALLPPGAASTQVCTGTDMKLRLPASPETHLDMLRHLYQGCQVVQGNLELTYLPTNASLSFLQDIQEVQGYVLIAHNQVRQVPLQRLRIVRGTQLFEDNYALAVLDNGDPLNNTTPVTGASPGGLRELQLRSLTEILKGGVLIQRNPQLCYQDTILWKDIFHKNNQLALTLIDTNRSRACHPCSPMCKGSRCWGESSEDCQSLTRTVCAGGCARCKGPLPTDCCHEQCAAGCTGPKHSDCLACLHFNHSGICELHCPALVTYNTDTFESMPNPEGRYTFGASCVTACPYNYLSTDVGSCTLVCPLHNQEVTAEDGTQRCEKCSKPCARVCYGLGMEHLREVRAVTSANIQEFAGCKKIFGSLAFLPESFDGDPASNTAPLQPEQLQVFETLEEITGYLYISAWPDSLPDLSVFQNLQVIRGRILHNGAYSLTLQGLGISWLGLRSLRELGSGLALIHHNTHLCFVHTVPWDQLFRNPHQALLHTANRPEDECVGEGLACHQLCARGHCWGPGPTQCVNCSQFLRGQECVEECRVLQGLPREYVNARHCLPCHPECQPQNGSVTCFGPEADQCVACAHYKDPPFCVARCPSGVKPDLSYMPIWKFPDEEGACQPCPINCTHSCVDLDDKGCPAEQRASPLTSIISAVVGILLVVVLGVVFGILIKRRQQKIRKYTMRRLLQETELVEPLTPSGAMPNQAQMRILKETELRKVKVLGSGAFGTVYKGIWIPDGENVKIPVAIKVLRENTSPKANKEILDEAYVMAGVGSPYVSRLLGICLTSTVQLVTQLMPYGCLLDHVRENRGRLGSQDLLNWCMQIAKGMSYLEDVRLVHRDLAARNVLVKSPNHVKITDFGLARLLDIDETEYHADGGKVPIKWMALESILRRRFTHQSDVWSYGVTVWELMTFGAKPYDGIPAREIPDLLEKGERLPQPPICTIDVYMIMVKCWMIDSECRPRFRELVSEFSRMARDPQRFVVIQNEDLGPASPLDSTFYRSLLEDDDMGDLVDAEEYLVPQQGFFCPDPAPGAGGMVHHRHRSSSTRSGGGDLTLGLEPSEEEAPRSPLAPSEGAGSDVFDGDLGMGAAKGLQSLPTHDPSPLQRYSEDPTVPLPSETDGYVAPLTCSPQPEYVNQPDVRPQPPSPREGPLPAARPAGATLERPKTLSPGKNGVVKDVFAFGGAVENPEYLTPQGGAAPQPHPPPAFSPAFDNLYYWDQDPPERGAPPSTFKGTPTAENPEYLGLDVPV
Chain of Alpha-1B adrenergic receptor (Homo sapiens) (P35368 whole entry): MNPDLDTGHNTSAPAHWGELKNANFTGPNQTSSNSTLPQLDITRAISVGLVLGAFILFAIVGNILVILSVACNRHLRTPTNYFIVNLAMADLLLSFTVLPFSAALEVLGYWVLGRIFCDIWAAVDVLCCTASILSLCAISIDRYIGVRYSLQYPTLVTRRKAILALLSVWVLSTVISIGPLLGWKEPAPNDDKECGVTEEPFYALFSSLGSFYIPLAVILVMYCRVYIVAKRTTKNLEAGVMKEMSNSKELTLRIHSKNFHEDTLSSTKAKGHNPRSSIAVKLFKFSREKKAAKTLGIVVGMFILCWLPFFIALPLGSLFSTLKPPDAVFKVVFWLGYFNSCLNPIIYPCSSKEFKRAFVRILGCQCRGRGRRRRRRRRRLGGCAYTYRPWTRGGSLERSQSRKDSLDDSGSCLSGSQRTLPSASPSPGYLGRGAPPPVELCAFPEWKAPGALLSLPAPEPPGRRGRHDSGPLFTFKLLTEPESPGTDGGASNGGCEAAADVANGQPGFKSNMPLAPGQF
Chain of Matrilysin (Homo sapiens) (P09237 whole entry): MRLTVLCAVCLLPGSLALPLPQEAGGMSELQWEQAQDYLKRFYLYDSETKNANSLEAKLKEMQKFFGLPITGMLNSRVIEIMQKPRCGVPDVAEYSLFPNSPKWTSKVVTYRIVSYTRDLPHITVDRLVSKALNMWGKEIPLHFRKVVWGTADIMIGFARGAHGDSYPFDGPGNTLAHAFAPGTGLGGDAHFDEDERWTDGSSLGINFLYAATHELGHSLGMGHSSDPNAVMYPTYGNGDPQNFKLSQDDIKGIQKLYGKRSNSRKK
Chain of Coagulation factor X (Homo sapiens) (P00742 41-179 limits assumed): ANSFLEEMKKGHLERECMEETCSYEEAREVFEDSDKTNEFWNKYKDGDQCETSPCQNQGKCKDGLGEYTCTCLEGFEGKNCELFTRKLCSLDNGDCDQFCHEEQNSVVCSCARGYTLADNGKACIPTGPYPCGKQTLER
Chain of Coagulation factor X (Homo sapiens) (P00742 235-488 limits assumed): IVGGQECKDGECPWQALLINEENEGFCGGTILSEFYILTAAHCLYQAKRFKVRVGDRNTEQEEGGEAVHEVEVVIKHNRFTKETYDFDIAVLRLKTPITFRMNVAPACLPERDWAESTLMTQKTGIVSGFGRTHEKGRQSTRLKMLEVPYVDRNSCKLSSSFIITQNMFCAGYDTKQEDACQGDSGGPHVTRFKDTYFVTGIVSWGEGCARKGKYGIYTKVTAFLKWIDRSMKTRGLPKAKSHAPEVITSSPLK
Chain of MAO-A (P21397 whole entry): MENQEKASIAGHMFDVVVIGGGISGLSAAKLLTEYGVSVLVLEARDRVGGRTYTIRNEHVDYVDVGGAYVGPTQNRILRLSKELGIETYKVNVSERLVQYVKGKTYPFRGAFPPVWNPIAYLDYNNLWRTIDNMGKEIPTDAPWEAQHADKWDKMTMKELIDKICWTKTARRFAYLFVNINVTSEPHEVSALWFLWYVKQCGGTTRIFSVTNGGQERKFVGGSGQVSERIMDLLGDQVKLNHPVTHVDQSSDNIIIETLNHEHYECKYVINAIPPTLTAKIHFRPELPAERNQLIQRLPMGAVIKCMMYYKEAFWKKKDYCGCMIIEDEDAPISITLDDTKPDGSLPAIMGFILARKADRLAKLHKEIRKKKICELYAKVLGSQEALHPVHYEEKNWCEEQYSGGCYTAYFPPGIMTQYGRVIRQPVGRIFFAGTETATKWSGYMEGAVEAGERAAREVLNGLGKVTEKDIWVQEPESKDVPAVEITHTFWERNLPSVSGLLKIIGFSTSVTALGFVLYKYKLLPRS

As to `Cc1cc(OC2CCS(=O)(=O)CC2)cc(C)c1-c1cccc(COc2ccc(C(=O)O)c(F)c2)c1`, the inhibition in data set [1] is -1%; in data set [2], -5%; in data set [3] it was 10%; in [4] it was -7.07%; in data set [5] it was 2%; in data set [6], -6%. In addition, the inhibition in data set [7] is -3%.

On to `Cc1cc(OC2CCS(=O)(=O)CC2)cc(C)c1-c1cccc(COc2ccc(CCC(=O)O)c(F)c2)c1`, for which the inhibition was -0.04% in data set [8]; 19.1% in data set [9]; 2.31% in data set [10]; 0.86% in data set [11]; -9% in data set [12]; 60% in [13]. Further, the inhibition was 3% in data set [14]; 26% in data set [15]; 14% in data set [16]; 85% in data set [17]; 36% in data set [18]; 6% in [19]. Moreover, the inhibition in [20] was 1%; in data set [21] it was 50.8%; in data set [22], 20%; in data set [23], -1%; in data set [24] it was 19%; in data set [25] it was -10%. For the same molecule, the inhibition is 4% in data set [26]; 0% in data set [27]; 8% in [28]; 2% in [29]; 10% in data set [30]; -1% in [31]. In addition, the inhibition in data set [32] is 30%; in [34] it was -5%; in data set [35] it was -5%; in data set [36], -8%; in data set [37], 1%; in data set [38], 2%. Also, the inhibition at 60 min, 10 µM in data set [33] is 7% (not active).
